Experiment [1] concerns Fyn. The experiment is classed as cell-based, rat. To be noted: EtOH exposure 30 min.
Experiment [2] concerns c-Cbl. Format: cell-based, rat. In short, it runs like this:
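Pre-cleared cell lysates (250 μg total protein) immunoprecipitated with anti-c-Cbl or anti-PDGFRα antibody (2 h, 4° C), then protein A/G agarose overnight at 4° C. Precipitates run on 8% SDS-PAGE and Western blotted with anti-p-Tyr (c-Cbl phosphorylation) or anti-ubiquitin (PDGFR ubiquitylation).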

The subject of experiment [3] is c-Met. The experiment is classed as cell-based, rat. In short, it runs like this:
(§1)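 Western blot of cell lysates or sonicated tissue in RAPI buffer, SDS-PAGE to PVDF, primary antibodies (phospho-Erk, phospho-Akt, receptor, phospho-tyrosine), HRP secondary and luminol detection. Signaling analysed in presence of the cognate ligand: EGF for EGFR, NT-3 for TrkC, HGF for c-Met.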

Experiment [4] relates to EGFR. The experiment is classed as cell-based, rat. In short, it runs like this:
as §1

In experiment [5] the test system is TrkC. Format: cell-based, rat. In short, it runs like this:
as §1

Experiment [6] has as its system Akt. Format: cell-based, rat. In short, it runs like this:
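Cells deprived of PDGF-AA for 5 h, then re-exposed to PDGF-AA (10 ng/ml) for 1 h. Lysates in RIPA buffer resolved by SDS-PAGE and immunoblotted with phospho-specific and total Akt or Erk antibodies, detected by HRP chemiluminescence.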

Experiment [7] concerns Erk1/2. Format: cell-based, rat.
The subject of experiment [8] is O-2A/OPCs. In words: MTT+ cells in EtOH-exposed O-2A/OPCs. Format: cell-based, rat. The conditions noted are these: cells infected with empty virus; 0.5% EtOH, 72 hrs.
Procedure: Twenty-four hr after transfection, medium was changed into DMEM/F12(SATO-) supplemented with 10 ng/ml PDGF-AA. Virus supernatant was collected forty-eight hr post-transfection, filtered through 0.45 um filter to remove non-adherent cells and cellular debris, frozen in small aliquots on dry ice, and stored at −80° C. Twenty-four hr prior to infection with either DN-c-Cbl virus or backbone virus, O-2A cells were seeded. The following day, the culture media was aspirated and replaced with virus supernatant diluted 1:1 in the O-2A growth media. Media was then changed into O-2. A growth media after eight hr or overnight. Twenty-four hr after infection, the cells were collected by trypsinization and reseeded in the selective media (growth media+200 ng/ml puromycin). By the next day, all non-infected cells were floating and presumably dead or dying. The infected cells were allowed to proliferate for two days, and then collected and re-seeded for these experiments.
The test system of experiment [9] is PDGFRα. Format: cell-based, rat.
Experiment [10] deals with O-2A/OPCs. Kind of experiment: In vitro BrdU incorporation assay. Format: cell-based, rat. To be noted: together with MeHg. The method, then: Cell proliferation was assessed by bromodeoxyuridine (BrdU) incorporation and by using the mouse anti-BrdU mAb IgGl (1:100; Sigma) to label dividing cells. Stained cells on cover slips were rinsed two times in 1×PBS, counterstained with 4′6-diamidino-2-phenylindole (DAPI; Molecular Probes, Eugene, Oreg., United States) and mounted on glass slides with Fluoromount (Molecular Probes). Staining against surface proteins was performed on cultures of living cells or on cells fixed with 2% paraformaldehyde. Staining with intracellular antibodies was performed by permeabilizing cells with ice-cold methanol for 4 min or by using 0.5% Triton for 15 mm on 2% parafomaldhyde-fixed cells. Antibody binding was detected with appropriate fluorescent dye-conjugated secondary antibodies at 10 μg/ml (Southern Biotech, Birmingham, Ala., United States) or Alexa Fluor-coupled antibodies at a concentration of 1 μg/ml (Molecular Probes), applied for 20 min. Anti-BrdU monoclonal antibody was obtained from Sigma.
On the technique in general: Dividing cells build labelled thymidine or BrdU into new DNA.

Experiment [11] concerns the target Rho kinase (Rattus norvegicus, UniProt Q63644). The conditions noted are these: concentration of Y27632 used in O-2A/OPCs. The method, then: Rho kinase activity was quantified using the CycLex Rho-Kinase Assay kit (MBL international, Woburn, Mass., United States) as described. Cells were lysed and about 500 μg of total cell Jysates were immunoprecipitated with anti-ROCK1 antibody (Sigma), and the precipitates were re-suspended with kinase reaction buffer provided in the kit. Rho kinase activities of each sample were assayed using the kit according to the manufacturer's instructions.

The record followed here is patent US20080171710A1, “The Redox/Fyn/c-Cbl Pathway” (priority 2007, published 2008).

Chain of Rho kinase (Q63644 whole entry): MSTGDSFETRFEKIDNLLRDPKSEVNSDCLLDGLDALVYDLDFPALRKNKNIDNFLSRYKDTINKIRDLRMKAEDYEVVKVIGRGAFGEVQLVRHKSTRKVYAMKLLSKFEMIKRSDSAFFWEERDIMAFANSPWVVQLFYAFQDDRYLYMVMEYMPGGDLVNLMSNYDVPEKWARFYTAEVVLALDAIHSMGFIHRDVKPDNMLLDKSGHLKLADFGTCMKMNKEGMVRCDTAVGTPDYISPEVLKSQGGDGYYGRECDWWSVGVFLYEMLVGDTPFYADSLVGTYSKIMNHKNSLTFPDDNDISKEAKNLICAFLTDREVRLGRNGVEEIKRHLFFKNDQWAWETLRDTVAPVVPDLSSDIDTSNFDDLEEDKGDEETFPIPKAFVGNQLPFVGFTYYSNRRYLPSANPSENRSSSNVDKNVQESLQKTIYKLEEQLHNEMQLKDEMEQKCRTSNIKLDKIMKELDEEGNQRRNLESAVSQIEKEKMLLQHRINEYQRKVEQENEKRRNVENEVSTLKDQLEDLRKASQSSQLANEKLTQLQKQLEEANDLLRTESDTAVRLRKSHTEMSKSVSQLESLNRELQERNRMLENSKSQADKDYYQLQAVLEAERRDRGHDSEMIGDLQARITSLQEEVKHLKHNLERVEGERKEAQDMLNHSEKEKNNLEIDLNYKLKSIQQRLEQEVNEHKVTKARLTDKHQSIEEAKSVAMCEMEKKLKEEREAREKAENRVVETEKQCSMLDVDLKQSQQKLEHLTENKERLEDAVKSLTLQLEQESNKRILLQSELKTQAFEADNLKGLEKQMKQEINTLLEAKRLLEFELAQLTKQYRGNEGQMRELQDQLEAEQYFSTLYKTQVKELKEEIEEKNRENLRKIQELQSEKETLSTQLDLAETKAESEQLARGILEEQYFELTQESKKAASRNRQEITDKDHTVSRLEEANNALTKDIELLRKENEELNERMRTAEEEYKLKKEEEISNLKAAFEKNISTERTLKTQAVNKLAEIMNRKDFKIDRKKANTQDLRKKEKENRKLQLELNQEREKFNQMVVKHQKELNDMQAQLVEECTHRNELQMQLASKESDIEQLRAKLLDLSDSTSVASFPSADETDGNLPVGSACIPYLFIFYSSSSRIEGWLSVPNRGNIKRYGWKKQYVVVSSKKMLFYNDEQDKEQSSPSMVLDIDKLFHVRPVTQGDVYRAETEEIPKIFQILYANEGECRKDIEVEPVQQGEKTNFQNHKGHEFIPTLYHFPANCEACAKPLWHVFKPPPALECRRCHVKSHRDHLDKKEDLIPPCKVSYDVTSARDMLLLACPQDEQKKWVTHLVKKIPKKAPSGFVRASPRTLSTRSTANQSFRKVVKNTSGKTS

Regarding `CCO` [EtOH, ethanol], the Fyn phosphorylation result in experiment [1] was “caused Fyn phosphorylation”. Moreover, the c-Cbl phosphorylation entry in experiment [2] is reported as “caused c-Cbl phosphorylation”. For the same compound, in experiment [3], the “levels of c-Met” value is listed as “decreased levels”. The “levels of EGFR” value in experiment [4] was “decreased levels”. Also, the “levels of TrkC” value in experiment [5] is “unaltered”. The “PDGF-induced phosphorylation of Akt” value in experiment [6] is “suppression”. In experiment [7], the “PDGF-induced phosphorylation of Erk1/2” value was “suppression”. The “decrease in the proportion of cells that were MTT+” value in experiment [8] is on record as approximately 25%. Moreover, the “levels of PDGFRα” value in experiment [9] is “decreased levels”.

Regarding `C[C@@H](N)[C@H]1CC[C@H](C(=O)Nc2ccncc2)CC1` [Y27632], in [10], the “effect on MeHg-associated suppression of BrdU incorporation / cell division” value is recorded as “did not alter”. The Rho kinase activity entry in experiment [11] is reported as “successfully inhibited”.
